From patent US9758459B2, “Allosteric modulators of factor XIa as anticoagulant agents” (VIRGINIA COMMONWEALTH UNIVERSITY, priority 2012, dated 2017)
Values joined by “and” are separate entries in the source; they are usually repeats but may differ in a detail not shown here. Equal values may be shown once. Read-outs that look alike come from different tables or passages of the source.

Legend:
factor IXa = target: T1, factor IXa (Homo sapiens, UniProt P00740); experiment: Factor IXa chromogenic substrate hydrolysis assay; type: biochemical
T1 construct: purchased Haematologic Technologies (Essex Junction, Vt.); host or cells: human plasma

FXIa wild type (FXIa-WT) = target: T2, FXIa wild type (FXIa-WT) (Homo sapiens, UniProt P03951); experiment: Michaelis-Menten kinetics of S-2366 hydrolysis by full-length factor XIa; type: biochemical
T2 construct: made in house; host or cells: HEK-293
Description: (§1) Plasma FIX (500 nM) was incubated with human FXIa (3 nM) in 50 mM Hepes buffer, pH 7.4, containing 125 mM NaCl, 5 mM CaCl2, and 0.1 mg/mL bovine serum albumin at 24° C. […] The primary antibody was goat anti-human FIX polyclonal IgG (Enzyme Research Laboratories, South Bend, Tenn.), and the secondary antibody was horseradish peroxidase-conjugated anti-goat IgG. Detection was by chemiluminescence. […] The inhibition profile was determined over a range of inhibitor concentrations to determine the IC50 of the enzyme-inhibitor complex. The KM of the substrate for its enzyme was used to identify the concentration of the substrate to be used for inhibition studies. […] Active site concentrations for preparations of FXIa were determined by titrations with human antithrombin in an S-2366 cleavage assay. The reaction was monitored using a SpectraMax 340 microtiter plate reader (Molecular Devices Corp., Sunnyvale, Calif.) with a reaction volume of 100 μL and path length of 3 mm. Each assay was performed in triplicate. The concentration of S-2366 was measured using an absorption coefficient of 8,266 M-1cm-1 at λ342 nm, while the free p-nitroaniline concentration was calculated using an absorption coefficient of 9,933 M cm^−1 at λ405 nm. The data was fitted using the standard Michaelis-Menten equation to determine the KM and VMAX. Results

human plasma = experiment: Activated partial thromboplastin time (APTT) plasma clotting assay; type: biochemical
Description: Plasma clotting assays, prothrombin and activated partial thromboplastin time (PT and APTT, respectively), are routinely used to assess the anticoagulation potential of new enzyme inhibitors in an in vitro setting. Whereas PT measures the effect of an inhibitor on the extrinsic pathway of coagulation, APTT measures the effect on the intrinsic pathway.
Prothrombin Time (PT) and Activated Partial Thromboplastin Time (APTT) were assessed as described in Example 1.

human FXIa [1] = target: T3, human FXIa (Homo sapiens, UniProt P03951); experiment: Inhibition of FXIa by SPGG in the presence of UFH (competition); type: biochemical
T3 construct: purchased Haematologic Technologies (Essex Junction, Vt.); host or cells: human plasma
Description: Solvent A consisted of 25 mM n-hexylamine in water containing 0.1% (v/v) formic acid, while solvent B consisted of 25 mM n-hexylamine in acetonitrile-water mixture (3:1 v/v) containing 0.1% (v/v) formic acid. […] The sample was first monitored for absorbance in the range of 190-400 nm and then directly introduced into the mass spectrometer. ESI-MS detection was performed in positive ion mode for which the capillary voltage was 4 kV, cone voltage was 20 V, desolvation temperature was 350° C. and nitrogen gas flow was maintained at 650 L/hr. Mass scans were collected in the range of 1000-2048 amu within 0.25 s and several of these added to enhanced signal-to-noise ratio. Direct Inhibition of Factor XIa. […] After 10 min incubation, 5 μL factor XIa substrate (345 μM) was rapidly added and the residual FXIa activity was measured from the initial rate of increase in absorbance at 405 nm. […] Relative residual FXIa activity at each concentration of the inhibitor was calculated from the ratio of FXIa activity in the presence and absence of the inhibitor. Logistic equation 1 was used to fit the dose-dependence of residual protease activity to obtain the potency (IC50) and efficacy (ΔY) of inhibition.
A more quantitative test of competitive binding is the Dixon-Webb relationship, which predicts the effect of an ideal competitor on a measured parameter, e.g. KD or IC50.

human whole blood = experiment: Thromboelastography of clot formation in whole blood; set-up: G: unit not given here
From the text: To assess the anticoagulation properties of SPGG in human whole blood, thromboelastography was employed. This technique is an ex vivo protocol often utilized to evaluate the anticoagulant activity of low molecular weight heparins (LMWHs) in whole blood.^13-16Thromboelastography monitors the thrombodynamic properties of blood as it is induced to clot under a low shear environment resembling sluggish venous flow. These thrombodynamic properties are expected to dramatically change in presence of anticoagulant in blood. The blood clot formation is recorded as a force transduced on a pin at the center of a blood-containing cup. The kinetics of clot formation and growth as well as the strength and stability of the formed clot are measured through parameters such as maximum amplitude (MA) of clot formation; shear elastic modulus strength (G) of clot; the reaction time (R) for the start of clotting; and the angle α, which is a measure of fibrin build-up and cross-linking (FIG. 8).

human FXIa [2] = target: T3, human FXIa; experiment: Inhibition of FXIa activation of FIX, Western blotting; type: biochemical
Description: as §1

C57Bl/6 mice = experiment: FeCl3 carotid artery thrombosis model; type: in vivo
Description: Exposure of the carotid artery of C57Bl/6 mice to FeCl3 (either 3.5% or 5.0%) results in formation of an occlusive platelet-rich thrombus within 15 minute.

T1 sequence (P00740 227-461 limits assumed): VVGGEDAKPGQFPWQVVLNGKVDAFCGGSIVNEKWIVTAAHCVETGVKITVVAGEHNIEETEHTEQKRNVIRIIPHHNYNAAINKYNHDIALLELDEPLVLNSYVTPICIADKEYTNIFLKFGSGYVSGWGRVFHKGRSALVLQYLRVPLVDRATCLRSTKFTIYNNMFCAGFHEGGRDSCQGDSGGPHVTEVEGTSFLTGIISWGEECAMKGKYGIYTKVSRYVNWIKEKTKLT
T1 sequence (P00740 47-191 partner limits assumed): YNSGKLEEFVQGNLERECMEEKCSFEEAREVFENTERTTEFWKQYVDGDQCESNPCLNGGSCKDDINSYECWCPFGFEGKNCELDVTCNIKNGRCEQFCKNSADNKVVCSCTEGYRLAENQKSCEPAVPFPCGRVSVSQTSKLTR
T3 sequence (P03951 19-387 limits assumed): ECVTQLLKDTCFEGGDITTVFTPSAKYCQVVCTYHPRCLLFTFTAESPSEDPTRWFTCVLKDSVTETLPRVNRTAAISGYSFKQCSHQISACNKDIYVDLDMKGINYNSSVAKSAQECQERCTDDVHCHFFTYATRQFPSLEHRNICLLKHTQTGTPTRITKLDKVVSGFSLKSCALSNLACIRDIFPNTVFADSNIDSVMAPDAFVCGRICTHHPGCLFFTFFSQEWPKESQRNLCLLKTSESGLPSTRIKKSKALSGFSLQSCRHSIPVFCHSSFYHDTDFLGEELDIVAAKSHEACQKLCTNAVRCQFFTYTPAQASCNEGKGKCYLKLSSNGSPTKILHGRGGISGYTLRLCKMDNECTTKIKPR
T3 sequence (P03951 388-625 limits assumed): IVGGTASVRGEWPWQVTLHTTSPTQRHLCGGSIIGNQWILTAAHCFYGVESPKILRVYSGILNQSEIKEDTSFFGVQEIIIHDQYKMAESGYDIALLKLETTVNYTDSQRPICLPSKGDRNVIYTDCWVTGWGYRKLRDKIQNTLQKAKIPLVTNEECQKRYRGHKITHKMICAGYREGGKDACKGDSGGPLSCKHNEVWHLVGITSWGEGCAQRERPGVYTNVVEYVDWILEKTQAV
T2 sequence (P03951 19-387 limits assumed): as the sequence (P03951 19-387 limits assumed) above
T2 sequence (P03951 388-625 limits assumed): as the sequence (P03951 388-625 limits assumed) above

## O=C(OC[C@H]1O[C@@H](OC(=O)c2cc(OS(=O)(=O)O)c(O)c(OS(=O)(=O)O)c2)[C@H](OC(=O)c2cc(OS(=O)(=O)O)c(O)c(OS(=O)(=O)O)c2)[C@@H](OC(=O)c2cc(OS(=O)(=O)O)c(O)c(OS(=O)(=O)O)c2)[C@@H]1OC(=O)c1cc(OS(=O)(=O)O)c(O)c(OS(=O)(=O)O)c1)c1cc(OS(=O)(=O)O)c(O)c(OS(=O)(=O)O)c1 [SPGG, Sulfated Pentagalloylglucoside]
Factor IXa
  HS: 2.2 ± 0.6
  IC50: 655 µM
  ΔY: 100.6 ± 5.8
Factor IXa; FXIa vs factor IXa
  selectivity over factor IXa: 950 fold
FXIa wild type (FXIa-WT); [SPGG] 0.005 μg/mL
  VMAX: 93.7 ± 3.2 mAU/min
FXIa wild type (FXIa-WT); [SPGG] 0.5 μg/mL
  VMAX: 74.6 ± 2.6 mAU/min
FXIa wild type (FXIa-WT); [SPGG] 5.0 μg/mL
  VMAX: 32.3 ± 2.1 mAU/min
FXIa wild type (FXIa-WT); [SPGG] 50.0 μg/mL
  VMAX: 17.2 mAU/min and 17.2 ± 1.2 mAU/min
FXIa wild type (FXIa-WT); [SPGG] […]
  VMAX: 56.9 ± 1.5 mAU/min
Human plasma; at molar levels
  fold less effective than enoxaparin: 36 fold
Human plasma; by weight (μg/mL)
  APTT doubling potency relative to enoxaparin (fold less): 18 fold
Human plasma; human plasma
  concentration for 2-fold increase in APTT: 96 µg/mL
Human FXIa [1]; UFH 0 μM
  HS: 1.3 ± 0.1
  ΔY: 97.1 ± 3.2
Human FXIa [1]; UFH 0 μM, Dixon-Webb equation, read-out: IC50, predicted (converted)
  IC50: 0.689 µM
Human FXIa [1]; UFH 3.33 μM
  HS: 1.7 ± 0.2
  ΔY: 92.7 ± 6.4
Human FXIa [1]; UFH 3.33 μM, Dixon-Webb equation, read-out: IC50, predicted (converted)
  IC50: 2.24 µM
Human FXIa [1]; UFH 3.33 μM, pH 7.4, 37° C., read-out: IC50 (converted)
  IC50: 4.02 µM
Human FXIa [1]; UFH 33.3 μM
  HS: 4.0 ± 0.9
  ΔY: 58.2 ± 6.6
Human FXIa [1]; UFH 33.3 μM, pH 7.4, 37° C., read-out: IC50 (converted)
  IC50: 18 µM and 17.8 µM
Human FXIa [1]; UFH […], Dixon-Webb equation, read-out: IC50, predicted (converted)
  IC50: 0.747 µM
Human whole blood; SPGG 0-280 μg/mL
  reduction of G: ~8 fold
  reduction of MA: ~4 fold
Human whole blood; SPGG 20 μg/mL
  G: 8.2 × 10^3
  MA: 62 mm
  R: 6.6 min
  α: 51.4 degs
Human whole blood; SPGG 135 μg/mL
  G: 5.0 × 10^3
  MA: 49.8 mm
  R: 22.8 min
  α: 30.6 degs
Human whole blood; SPGG 190 μg/mL
  G: 3.8 × 10^3
  MA: 43.5 mm
  R: 37.8 min
  α: 9.4 degs
Human whole blood; SPGG 280 μg/mL
  G: 0.9 × 10^3
  MA: 15.1 mm
  R: 87.1 min
Human whole blood; SPGG increased from 0 to 280 μg/mL
  α: less than 9.4 °
Human FXIa [2]; 3 μM SPGG, FIX 0.5 μM, after 120 min of incubation
  formation of FIXαβ: not detectable
Human FXIa [2]; read-out: efficacy of inhibition of FIX activation by FXIa
  inhibition at 3 µM: ~100%
C57Bl/6 mice; 3.5% FeCl3, doses of 0.025 to 0.2 mg injected 10 min before FeCl3
  arteries in which thrombosis was prevented: ~100%
C57Bl/6 mice; 5.0% FeCl3, dose of 0.2 mg
  protection of vessels from occlusion: protected all vessels from occlusion
